Experimental data: US7851487B2, “Use of tetrahydropyridines in the treatment of central nervous system disorders” (The Research Foundation of State University of New York, priority 2006, dated 2010)

Legend:
[1] = target: Dopamine D1 (Homo sapiens, UniProt P21728); test: Radioligand binding, Dopamine D1; details: Dopamine D1, 10 μM; read-out: Percentage Inhibition
Description: (§1) The assays utilized human neuroreceptors and were performed under the experimental parameters set forth in Table 2 using standard techniques.
(§2) For Table 3, IC50 values were determined by non-linear, least squares regression analysis using Data Analysis Toolbox™ (MDL Information Systems, San Leandro, Calif., USA). Inhibition constants (KI) were calculated using the equation of Cheng and Prusoff (Cheng, Y., et al. Biochem. Pharmacol. 22:3099-3108, 1973) using the observed IC50 of the tested compound, the concentration of radioligand employed in the assay, and the values for the KD of the ligand. The Hill coefficient (nH), defining the slope of the competitive binding curve, was calculated using the Data Analysis Toolbox™. Biochemical assay results are presented as the percent inhibition of specific binding or activity unless indicated otherwise. The experiments summarized in Table 3 utilized human dopamine D1, D2 s, D21, D3, D4.2, D4.4, serotonin 5HT1A, 5HT2A, 5HT2C, 5HT6, 5HT7, dopamine transporter (DAT), serotonin transporter (SERT) and the norepinephrine transporter (NET), as indicated in Table 3.

[2] = target: T1, Serotonin 5HT2A (Homo sapiens, UniProt P28223); test: Radioligand binding, Serotonin 5HT2A ([3H]Ketanserin)
T1 construct: host or cells: CHO-K1 cells
T1 sequence (P28223 whole entry): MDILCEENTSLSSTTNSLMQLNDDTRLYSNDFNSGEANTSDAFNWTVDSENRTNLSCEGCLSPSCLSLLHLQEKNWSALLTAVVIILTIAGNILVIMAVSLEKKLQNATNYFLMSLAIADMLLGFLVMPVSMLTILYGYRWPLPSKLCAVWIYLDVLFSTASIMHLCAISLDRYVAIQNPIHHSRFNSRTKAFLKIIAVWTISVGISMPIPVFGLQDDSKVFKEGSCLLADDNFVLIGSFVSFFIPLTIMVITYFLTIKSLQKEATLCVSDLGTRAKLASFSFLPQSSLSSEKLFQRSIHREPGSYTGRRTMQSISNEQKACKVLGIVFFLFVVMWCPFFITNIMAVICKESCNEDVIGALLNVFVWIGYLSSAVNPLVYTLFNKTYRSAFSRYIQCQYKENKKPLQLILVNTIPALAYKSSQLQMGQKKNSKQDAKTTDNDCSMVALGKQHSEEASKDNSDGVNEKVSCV
Description: as §1, §2

[3] = target: T2, Serotonin 5HT6 (Homo sapiens, UniProt P50406); test: Radioligand binding, Serotonin 5HT6 ([3H]LSD)
T2 construct: host or cells: HeLa cells
T2 sequence (P50406 whole entry): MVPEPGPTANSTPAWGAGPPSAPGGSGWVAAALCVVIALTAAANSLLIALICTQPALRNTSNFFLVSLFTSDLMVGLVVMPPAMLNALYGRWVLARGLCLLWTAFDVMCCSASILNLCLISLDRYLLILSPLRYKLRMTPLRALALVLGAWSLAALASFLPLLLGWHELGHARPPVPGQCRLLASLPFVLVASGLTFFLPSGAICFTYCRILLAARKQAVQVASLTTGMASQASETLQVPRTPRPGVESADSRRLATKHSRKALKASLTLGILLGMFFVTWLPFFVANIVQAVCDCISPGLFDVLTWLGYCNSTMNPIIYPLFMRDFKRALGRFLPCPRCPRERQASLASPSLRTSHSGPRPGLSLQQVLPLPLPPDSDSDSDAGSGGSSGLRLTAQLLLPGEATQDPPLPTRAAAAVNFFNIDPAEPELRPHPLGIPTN
Description: as §1, §2

[4] = target: T3, Serotonin 5HT7 (Homo sapiens, UniProt P34969); test: Radioligand binding, Serotonin 5HT7 ([3H]LSD)
T3 construct: host or cells: CHO cells
T3 sequence (P34969 whole entry): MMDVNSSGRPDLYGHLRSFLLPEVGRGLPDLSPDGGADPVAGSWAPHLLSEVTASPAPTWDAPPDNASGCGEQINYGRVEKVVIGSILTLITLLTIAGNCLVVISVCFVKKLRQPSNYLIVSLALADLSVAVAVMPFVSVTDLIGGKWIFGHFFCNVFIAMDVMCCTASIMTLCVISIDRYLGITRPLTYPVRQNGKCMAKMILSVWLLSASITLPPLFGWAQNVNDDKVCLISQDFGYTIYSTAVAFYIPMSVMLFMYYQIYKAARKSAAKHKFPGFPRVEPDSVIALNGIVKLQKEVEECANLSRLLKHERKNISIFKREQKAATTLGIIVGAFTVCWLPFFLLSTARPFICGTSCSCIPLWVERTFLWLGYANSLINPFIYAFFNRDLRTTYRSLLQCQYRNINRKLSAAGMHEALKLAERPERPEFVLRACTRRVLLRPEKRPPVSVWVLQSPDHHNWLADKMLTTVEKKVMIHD
Description: as §1, §2

[5] = target: T4, Serotonin transporter (SERT) (Homo sapiens, UniProt P31645); test: Radioligand binding, Serotonin transporter (SERT) ([3H]Paroxetine)
T4 construct: host or cells: HEK-293 cells
T4 sequence (P31645 whole entry): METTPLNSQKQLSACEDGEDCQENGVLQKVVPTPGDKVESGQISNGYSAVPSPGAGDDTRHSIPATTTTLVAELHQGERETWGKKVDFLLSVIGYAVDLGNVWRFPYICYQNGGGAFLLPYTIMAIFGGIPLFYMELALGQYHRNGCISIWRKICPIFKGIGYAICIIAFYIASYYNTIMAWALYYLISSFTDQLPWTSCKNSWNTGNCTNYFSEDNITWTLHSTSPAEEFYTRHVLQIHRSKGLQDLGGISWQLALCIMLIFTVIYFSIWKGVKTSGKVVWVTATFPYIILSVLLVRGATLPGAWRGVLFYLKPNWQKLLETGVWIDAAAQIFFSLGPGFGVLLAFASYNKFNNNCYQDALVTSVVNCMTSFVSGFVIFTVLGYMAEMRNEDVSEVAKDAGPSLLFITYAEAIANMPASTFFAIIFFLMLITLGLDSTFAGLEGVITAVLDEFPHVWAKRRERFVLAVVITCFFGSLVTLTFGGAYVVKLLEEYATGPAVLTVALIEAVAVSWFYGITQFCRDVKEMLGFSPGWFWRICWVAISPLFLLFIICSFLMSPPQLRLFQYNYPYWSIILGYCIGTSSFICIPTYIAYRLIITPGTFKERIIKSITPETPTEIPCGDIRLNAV
Description: as §1, §2

[6] = target: T5, Norepinephrine transporter (NET) (Homo sapiens, UniProt P23975); test: Radioligand binding, Norepinephrine transporter (NET) ([125I]RTI-55)
T5 construct: host or cells: MDCK cells
T5 sequence (P23975 whole entry): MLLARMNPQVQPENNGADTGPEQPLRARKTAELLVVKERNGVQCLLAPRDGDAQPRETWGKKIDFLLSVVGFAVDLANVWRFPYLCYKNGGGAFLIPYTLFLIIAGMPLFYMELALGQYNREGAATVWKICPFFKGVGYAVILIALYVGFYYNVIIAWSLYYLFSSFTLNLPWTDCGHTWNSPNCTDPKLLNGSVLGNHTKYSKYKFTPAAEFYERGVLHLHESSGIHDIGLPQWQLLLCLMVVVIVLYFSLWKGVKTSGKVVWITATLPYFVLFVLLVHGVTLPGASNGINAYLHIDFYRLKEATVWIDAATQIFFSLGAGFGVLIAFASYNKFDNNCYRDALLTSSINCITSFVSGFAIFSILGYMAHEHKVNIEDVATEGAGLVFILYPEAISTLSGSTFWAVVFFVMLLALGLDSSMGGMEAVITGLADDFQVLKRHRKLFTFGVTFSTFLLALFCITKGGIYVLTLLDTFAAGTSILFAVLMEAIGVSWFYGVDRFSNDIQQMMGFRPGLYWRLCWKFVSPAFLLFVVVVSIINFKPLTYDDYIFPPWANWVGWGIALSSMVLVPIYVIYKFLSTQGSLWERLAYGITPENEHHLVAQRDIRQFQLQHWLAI
Description: as §1, §2

[7] = system: ckr mouse; test: Prepulse inhibition (PPI) of the startle reflex in ckr mice; type: in vivo; details: 10 mg/kg
Description: To obtain the ckr mouse model presented in this Example, a representative compound 2 as set forth in Example 3 was used to investigate a standard measure of sensorimotor gating of the startle reflex. Sensorimotor gating of the startle reflex was assessed via measures of prepulse inhibition (PPI), which is the reduction in startle magnitude when the startling stimulus is preceded immediately by a weak prepulse. This measurement is valuable because the relative loss of PPI has been established in inherited neurodevelopmental disorders, such as schizophrenia in humans, as well as in rats after treatment with certain classes of drugs, including serotonin (5-HT) agonists. In animal models, the PPI test is considered to have good face, predictive and construct validity for sensorimotor gating deficits in schizophrenia.
A stock solution of compound 2 was dissolved in DMSO, and then diluted to 10 mg/10 ml with distilled water such that the final concentration of DMSO was 0.5%. […]
Startle reactivity was measured using a startle chamber (SR-LAB, San Diego Instruments, San Diego, Calif.). […]
The protocol for measuring PPI was adapted from known techniques. […] The startle response was recorded as the average movement detected over 65 ms following the pulse. […]
The startle amplitude was measured as the average startle response for the pulse-alone trials. […]

Chain of Dopamine D1 (P21728 whole entry): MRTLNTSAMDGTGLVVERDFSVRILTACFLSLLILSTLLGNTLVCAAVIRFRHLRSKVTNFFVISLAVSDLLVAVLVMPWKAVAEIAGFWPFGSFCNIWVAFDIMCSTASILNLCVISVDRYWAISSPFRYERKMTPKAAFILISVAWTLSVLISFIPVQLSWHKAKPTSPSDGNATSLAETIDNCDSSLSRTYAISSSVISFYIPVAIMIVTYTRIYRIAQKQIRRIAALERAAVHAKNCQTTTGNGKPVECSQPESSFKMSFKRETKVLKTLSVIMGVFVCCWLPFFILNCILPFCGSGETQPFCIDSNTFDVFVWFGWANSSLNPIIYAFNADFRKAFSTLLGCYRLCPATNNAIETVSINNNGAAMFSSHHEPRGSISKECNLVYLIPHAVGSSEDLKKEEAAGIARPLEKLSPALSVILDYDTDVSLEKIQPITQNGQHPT

For `COC(=O)[C@@H](c1ccc(-c2ccccc2)cc1)[C@H]1C=CCCN1` [Compound 2], the inhibition at 10 µM [1] was 17%, the IC50 [2] was 0.797 µM and the Ki [2] was 0.228 µM. The inhibition at 1 µM ([2]; Serotonin 5HT2A, 1 μM, read-out: Percentage Inhibition) was 61%, the inhibition at 10 µM ([2]; Serotonin 5HT2A, 10 μM, read-out: Percentage Inhibition) was 94% and the nH ([2]; Serotonin 5HT2A, Hill coefficient) was 1.02. It also gave an IC50 [3] of 94.5 µM, a Ki [3] of 43.9 µM and an inhibition at 100 µM ([3]; Serotonin 5HT6, 100 μM, read-out: Percentage Inhibition) of 53%. The nH ([3]; Serotonin 5HT6, Hill coefficient) was 1.12, the IC50 [4] was 25.8 µM and the Ki [4] was 14.8 µM. For the same compound, the inhibition at 30 µM ([4]; Serotonin 5HT7, 30 μM, read-out: Percentage Inhibition) was 53%, the nH ([4]; Serotonin 5HT7, Hill coefficient) was 0.774 and the IC50 [5] was 14.3 µM. It also gave a Ki [5] of 2.33 µM, an inhibition at 10 µM ([5]; Serotonin transporter (SERT), 10 μM, read-out: Percentage Inhibition) of 48% and an inhibition at 30 µM ([5]; Serotonin transporter (SERT), 30 μM, read-out: Percentage Inhibition) of 70%. It also gave a nH ([5]; Serotonin transporter (SERT), Hill coefficient) of 1.24, an IC50 [6] of 10 µM and a Ki [6] of 9.94 µM. For the same compound, the inhibition at 10 µM ([6]; Norepinephrine transporter (NET), 10 μM, read-out: Percentage Inhibition) was 51%, the nH ([6]; Norepinephrine transporter (NET), Hill coefficient) was 1.1 and the “PPI over the control across all pre-pulse intensities” value [7] was “trend of increased PPI”.
